In brackets after ≈: the same amount, converted by molar mass.
Key:
Format in all cases: functional
Bacillus subtilis = assay: Antibacterial activity against Bacillus subtilis ATCC 6633; details: Bacillus subtilis, ATCC 6633; read-out: MIC
[1] = system: Mycobacterium tuberculosis; assay: Antibacterial activity against Mycobacterium tuberculosis H160 by dilution method; details: Mycobacterium tuberculosis, H160; read-out: MIC
Escherichia coli = assay: Antibacterial activity against Escherichia coli ATCC 25922
Staphylococcus aureus [2] = assay: Antibacterial activity against Staphylococcus aureus ATCC 105487
Staphylococcus aureus [3] = assay: Antibacterial activity against Staphylococcus aureus ATCC 25923
Kluyveromyces marxianus = assay: Antifungal activity against Candida pseudotropicalis by dilution method
Candida albicans = assay: Antifungal activity against Candida albicans by dilution method
Staphylococcus aureus [4] = assay: Antibacterial activity against Staphylococcus aureus SA85 isolate
Enterococcus faecalis = assay: Antibacterial activity against Enterococcus faecalis ATCC 29212
[5] = system: Mycobacterium tuberculosis; assay: Antibacterial activity against Mycobacterium tuberculosis H37Rv by dilution method; details: Mycobacterium tuberculosis, H37Rv; read-out: MIC
Staphylococcus aureus [6] = assay: Antibacterial activity against Staphylococcus aureus SA52 isolate
Pseudomonas aeruginosa = assay: Antibacterial activity against Pseudomonas aeruginosa ATCC 27753
Staphylococcus aureus [7] = assay: Antibacterial activity against Staphylococcus aureus SA87 isolate; details: Staphylococcus aureus; read-out: MIC
[8] = system: Mycobacterium tuberculosis; assay: Antibacterial activity against Mycobacterium tuberculosis H190 by dilution method

Row | Structure (SMILES) | MIC (Bacillus subtilis) | MIC [1] | MIC (Escherichia coli) | MIC (Staphylococcus aureus [2]) | MIC (Staphylococcus aureus [3]) | MIC (Kluyveromyces marxianus) | MIC (Candida albicans) | MIC (Staphylococcus aureus [4]) | MIC (Enterococcus faecalis) | MIC [5] | MIC (Staphylococcus aureus [6]) | MIC (Pseudomonas aeruginosa) | MIC (Staphylococcus aureus [7]) | MIC [8]
1 | CCCCCCCC(=O)OCC(CO[C@@H]1O[C@H](CO)[C@H](O)[C@H](O)[C@H]1O)OC(=O)CCCCCCC (some centres not stated) | 32 µg/mL (≈ 63.2 µM) | 128 µg/mL (≈ 253 µM) | > 128 µg/mL | 32 µg/mL (≈ 63.2 µM) | 32 µg/mL (≈ 63.2 µM) | > 128 µg/mL | > 128 µg/mL | 32 µg/mL (≈ 63.2 µM) | 32 µg/mL (≈ 63.2 µM) | 128 µg/mL (≈ 253 µM) | > 128 µg/mL | > 128 µg/mL | 32 µg/mL (≈ 63.2 µM) | 128 µg/mL (≈ 253 µM)
2 | CC/C=C\C/C=C\C/C=C\CCCCCCCC(=O)OC[C@H](CO[C@@H]1O[C@H](CO)C(O)[C@H](O)[C@H]1O)OC(=O)CCCCCCC/C=C\C/C=C\C/C=C\CC (single isomer, unassigned) | > 128 µg/mL | > 128 µg/mL | > 128 µg/mL | > 128 µg/mL | 128 µg/mL (≈ 165 µM) | > 128 µg/mL | > 128 µg/mL | > 128 µg/mL | > 128 µg/mL | > 128 µg/mL | > 128 µg/mL | > 128 µg/mL | > 128 µg/mL | > 128 µg/mL
3 | CC/C=C\C/C=C\C/C=C\CCCCCCCC(=O)OC(COC(=O)CCCCCCC)CO[C@@H]1O[C@H](CO)[C@@H](O)[C@H](O)[C@H]1O (some centres not stated) | 128 µg/mL (≈ 200 µM) | 128 µg/mL (≈ 200 µM) | > 128 µg/mL | > 128 µg/mL | > 128 µg/mL | > 128 µg/mL | > 128 µg/mL | > 128 µg/mL | > 128 µg/mL | 64 µg/mL (≈ 99.9 µM) | > 128 µg/mL | > 128 µg/mL | 64 µg/mL (≈ 99.9 µM) | 64 µg/mL (≈ 99.9 µM)
